# PubChem BioAssay AID493126 (Sanford-Burnham Center for Chemical Genomics, 2011)
# The source made the active and inactive calls. No rule for the calls is given here.
# Target: Alkaline phosphatase, germ cell type (Homo sapiens) (UniProt P10696)
# Assay: PLAP enzyme activity modulators, SAR follow-up, selectivity assay for human IAP activator project, biochemical (AID 493126)
# Conditions: purified PLAP enzyme, counter-screen
# Alkaline phosphatase, germ cell type (Homo sapiens), sequence (P10696 whole entry, looked up): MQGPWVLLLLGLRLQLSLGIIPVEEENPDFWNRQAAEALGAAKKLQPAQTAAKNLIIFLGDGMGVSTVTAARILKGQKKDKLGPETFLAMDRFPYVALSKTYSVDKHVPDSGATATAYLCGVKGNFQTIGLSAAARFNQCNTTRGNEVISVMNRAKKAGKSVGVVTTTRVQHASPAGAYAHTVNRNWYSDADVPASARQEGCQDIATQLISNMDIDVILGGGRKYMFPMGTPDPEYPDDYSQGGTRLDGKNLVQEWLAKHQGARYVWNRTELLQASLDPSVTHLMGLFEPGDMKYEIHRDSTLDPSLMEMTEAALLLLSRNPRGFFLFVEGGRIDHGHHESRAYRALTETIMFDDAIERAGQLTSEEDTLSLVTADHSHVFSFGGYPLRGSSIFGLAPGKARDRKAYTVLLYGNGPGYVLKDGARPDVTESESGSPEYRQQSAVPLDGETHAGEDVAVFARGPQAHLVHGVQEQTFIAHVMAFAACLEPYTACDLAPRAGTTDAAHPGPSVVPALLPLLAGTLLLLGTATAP
row,SMILES,IC50 (inhibition of PLAP activity)
1,Cn1cccc1-c1cc(C(=O)NN=Cc2cc(Br)ccc2O)[nH]n1,9.66 µM
2,O=C(N/N=C/c1ccc(O)cc1)C(=O)N/N=C/c1ccc(O)cc1,> 100 µM (inactive)
3,O=C(N/N=C/c1cc(Br)ccc1O)C(=O)N/N=C/c1cc(Br)ccc1O,> 100 µM (inactive)
4,COc1cccc(C=NNC(=O)c2cc(-c3cccn3C)n[nH]2)c1O,8.67 µM
5,O=C(N/N=C\c1ccc2c(c1)OCO2)C(=O)N/N=C/c1ccc2c(c1)OCO2,> 100 µM (inactive)
6,COc1cc(/C=N/NC(=O)C(=O)N/N=C/c2cc(OC)c(OC)c(OC)c2)cc(OC)c1OC,> 100 µM (inactive)
7,COc1ccc(-c2cc(C(=O)NN=Cc3c(O)ccc4ccccc34)[nH]n2)cc1,> 100 µM (inactive)
8,CCOc1cccc(C=NNC(=O)c2cc(C3CC3)[nH]n2)c1O,7.02 µM
9,COc1cccc(C=NNC(=O)C(=O)NN=Cc2cccc(OC)c2O)c1O,8.61 µM
10,O=C(N/N=C/c1cc(Br)ccc1O)c1cc(C2CC2)[nH]n1,11.5 µM
11,COc1cccc(C=NNC(=O)C2=NNC(=O)C2C)c1O (stereo unspecified),8.02 µM
12,Cc1cc(C(=O)N/N=C\c2cc(C(C)(C)C)ccc2O)n[nH]1,7.02 µM
13,Cc1cc(C(=O)NN=Cc2cc(Cl)cc([N+](=O)[O-])c2O)n[nH]1,> 100 µM (inactive)
14,O=C(N/N=C/c1ccccc1O)c1n[nH]c2c1CCC2,8.33 µM
15,COc1ccc(OC)c(/C=N/NC(=O)C(=O)N/N=C/c2cc(OC)ccc2OC)c1,53.2 µM
16,O=C(N/N=C/c1c(O)ccc2ccccc12)c1cc(-c2cccs2)[nH]n1,31.8 µM
17,CC(=NNC(=O)C(=O)NN=C(C)c1cccc(O)c1)c1cccc(O)c1,> 100 µM (inactive)
18,CC1C(=O)NN=C1C(=O)NN=Cc1ccc(O)cc1O (stereo unspecified),10.3 µM

row,SMILES,IC50 (inhibition of PLAP activity)
1,CCCCOc1ccc(/C=N/NC(=O)C(=O)N/N=C/c2ccc(OCCCC)cc2)cc1,> 100 µM (inactive)
2,O=C(NN=Cc1ccccc1)C(=O)NN=Cc1ccccc1,32.9 µM
3,CC(C)C(=O)NC(=S)Nc1ccccc1C(=O)Nc1ccccc1,9.56 µM
4,N#CCOc1ccccc1/C=N/NC(=O)C(=O)N/N=C/c1ccccc1OCC#N,> 100 µM (inactive)
5,CC(=O)Nc1cccc(C(=O)NNC(=O)c2n[nH]c(=O)c3ccccc23)c1,10.2 µM
6,C/C(=N\NC(=O)c1[nH]nc2c1CCc1ccccc1-2)c1ccccc1O,7.57 µM
7,OC(c1nc2ccc(F)cc2[nH]1)C(O)c1nc2ccc(F)cc2[nH]1 (stereo unspecified),6.83 µM
8,O=C(CCN1C(=O)/C(=C/c2ccccc2Cl)SC1=S)NNC(=O)c1ccccc1O,23.7 µM
9,COc1cc(OC)c(OC)cc1/C=N/NC(=O)C(=O)N/N=C/c1cc(OC)c(OC)cc1OC,> 100 µM (inactive)
10,Cc1cc(C(=O)N/N=C/c2cc(Br)ccc2O)n[nH]1,10.3 µM
11,COc1cc(/C=N/NC(=O)C(=O)N/N=C/c2ccc(O)c(OC)c2)ccc1O,46.8 µM
12,CCOc1cc(/C=N/NC(=O)C(=O)N/N=C/c2ccc(O)c(OCC)c2)ccc1O,> 100 µM (inactive)
13,CCOc1cccc(C=NNC(=O)c2cc(-c3cccn3C)n[nH]2)c1O,9.86 µM
14,CCN(CC)c1ccc(/C=N/NC(=O)C(=O)N/N=C/c2ccc(N(CC)CC)cc2O)c(O)c1,> 100 µM (inactive)
15,COc1cccc(C=NNC(=O)C(=O)NN=Cc2cccc(OC)c2OC)c1OC,28.7 µM
16,COc1cc(OC)cc(C(=O)NNC(=O)c2nn(C)c(=O)c3ccccc23)c1,9.49 µM
17,Cc1cc(C(=O)NN=Cc2cccc([N+](=O)[O-])c2O)n[nH]1,> 100 µM (inactive)

# Further lines, results first:
row,IC50 (inhibition of PLAP activity),SMILES
1,0.87 µM,O=C1Nc2ccc(Br)cc2C12NNc1ccccc1O2 (stereo unspecified)
2,> 100 µM (inactive),O=C(NN=Cc1ccc(O)cc1O)C(=O)NN=Cc1ccc(O)cc1O
3,8.62 µM,O=C(N/N=C/c1ccccc1O)c1cc(C2CC2)[nH]n1
4,8.16 µM,C/C(=N\NC(=O)c1cc(C)[nH]n1)c1ccc2ccccc2c1O
5,14.6 µM,Cc1ccc(O)c(C=NNC(=O)c2[nH]ncc2Br)c1
6,12.1 µM,COc1cccc(C=NNC(=O)c2[nH]nc3c2CCc2ccccc2-3)c1O
7,11 µM,O=C(NC(=S)NNC(=O)c1ccccc1O)c1ccc(F)cc1
8,> 100 µM (inactive),COc1ccc(/C=N/NC(=O)C(=O)N/N=C/c2ccc(OC)c(OC)c2)cc1OC
9,15 µM,O=C(NNC(=S)NC(=O)c1ccccc1[N+](=O)[O-])c1ccccc1O
10,> 100 µM (inactive),O=C(N/N=C/c1ccc2c(c1)OCO2)C(=O)N/N=C/c1ccc2c(c1)OCO2
11,56.1 µM,O=C(N/N=C\c1cccc(O)c1)C(=O)N/N=C/c1cccc(O)c1
12,> 100 µM (inactive),CN(C)c1ccc(/C=N/NC(=O)C(=O)N/N=C/c2ccc(N(C)C)cc2)cc1
13,58.1 µM,O=C(N/N=C/c1ccccc1C(=O)O)C(=O)N/N=C/c1ccccc1C(=O)O
14,> 100 µM (inactive),O=C(N/N=C/c1c(O)ccc2ccccc12)C(=O)N/N=C/c1c(O)ccc2ccccc12
15,> 100 µM (inactive),O=C(NN=Cc1c(O)ccc2ccccc12)c1[nH]ncc1Br
16,> 100 µM (inactive),CC(=O)Nc1ccc(/C=N/NC(=O)C(=O)N/N=C/c2ccc(NC(C)=O)cc2)cc1
17,> 100 µM (inactive),COc1cc(/C=N\NC(=O)C(=O)N/N=C/c2cc(OC)c(O)c(OC)c2)cc(OC)c1O
18,> 100 µM (inactive),COc1ccc(-c2csc(Nc3cccc4ccccc34)n2)cc1F
19,6.41 µM,Cc1ccc(-c2cc(C(=O)NN=Cc3ccccc3O)n[nH]2)o1
20,52.3 µM,CC(C)Oc1ccccc1/C=N/NC(=O)C(=O)N/N=C/c1ccccc1OC(C)C
21,> 100 µM (inactive),COC(=O)c1ccc(/C=N/NC(=O)C(=O)N/N=C/c2ccc(C(=O)OC)cc2)cc1
